Assay results as given in paper PMC11186346, “Conformational flexibility driving charge-selective substrate translocation across a bacterial transporter” (Chemical Science, 2024).
Read-outs that look alike come from different tables or passages of the source.

What was measured:
truncated CymA (ΔN15) = truncated CymA (ΔN15) (Klebsiella oxytoca, UniProt Q48391); conditions: +50 mV
native CymA = biological target: T1, native CymA (Klebsiella oxytoca, UniProt Q48391); experiment: single-channel electrical recording, planar lipid bilayer; type: biochemical; conditions: +50 mV
T1 construct: full-length mature pore, residues 1-324, purified as described in earlier work, reconstituted in DPhPC planar lipid bilayers; monomeric beta-barrel
T1 sequence (Q48391 23-346): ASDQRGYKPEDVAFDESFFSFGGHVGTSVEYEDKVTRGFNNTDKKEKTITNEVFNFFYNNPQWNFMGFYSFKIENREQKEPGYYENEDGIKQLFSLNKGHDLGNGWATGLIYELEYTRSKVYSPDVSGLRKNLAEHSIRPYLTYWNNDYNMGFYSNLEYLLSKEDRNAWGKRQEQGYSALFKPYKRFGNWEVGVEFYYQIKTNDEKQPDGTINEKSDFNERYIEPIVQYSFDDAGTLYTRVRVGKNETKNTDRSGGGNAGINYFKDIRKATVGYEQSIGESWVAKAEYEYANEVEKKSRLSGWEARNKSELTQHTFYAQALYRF

[1] = pH 8.0, 1 M KCl, 10 mM HEPES, trans side, mean dwell time of blockage (koff = 1/τoff)
[2] = pH 6.0, mean dwell time of blockage

Row | SMILES | τoff (truncated CymA (ΔN15); [1]) [ms] | τoff (native CymA; [1]) [ms] | τoff (truncated CymA (ΔN15); [2]) [ms] | τoff (native CymA; [2]) [ms]
1 | NC[C@H]1O[C@@H]2O[C@H]3[C@H](O)[C@@H](O)[C@@H](O[C@H]4[C@H](O)[C@@H](O)[C@@H](O[C@H]5[C@H](O)[C@@H](O)[C@@H](O[C@H]6[C@H](O)[C@@H](O)[C@@H](O[C@H]7[C@H](O)[C@@H](O)[C@@H](O[C@H]1[C@H](O)[C@H]2O)O[C@@H]7CN)O[C@@H]6CN)O[C@@H]5CN)O[C@@H]4CN)O[C@@H]3CN [am6αCD] | 0.32 ± 0.04 | 0.55 ± 0.06 | – | –
2 | OC[C@H]1O[C@@H]2O[C@H]3[C@H](O)[C@@H](O)[C@@H](O[C@H]4[C@H](O)[C@@H](O)[C@@H](O[C@H]5[C@H](O)[C@@H](O)[C@@H](O[C@H]6[C@H](O)[C@@H](O)[C@@H](O[C@H]7[C@H](O)[C@@H](O)[C@@H](O[C@H]1[C@H](O)[C@H]2O)O[C@@H]7CO)O[C@@H]6CO)O[C@@H]5CO)O[C@@H]4CO)O[C@@H]3CO [αCD] | – | – | 0.4500 ± 0.04 | 0.620 ± 0.05
